Where two headings read alike, the source gives them in different places. Bridge positions count the residues as written; N and C are the ends. Square brackets hold non-standard residues; d marks the D form. Peptide text beside a SMILES is read from it. * marks the point of attachment. ξ: configuration not given here. Phe(4-COOH) = N[C@@H](Cc1ccc(C(=O)O)cc1)C(=O)O; Phe(3,4-F2) = N[C@@H](Cc1ccc(F)c(F)c1)C(=O)O; Bip = N[C@@H](Cc1ccc(-c2ccccc2)cc1)C(=O)O; Phe(3-Me) = Cc1cccc(C[C@H](N)C(=O)O)c1; Phe(2-Me) = Cc1ccccc1C[C@H](N)C(=O)O; Lys(Me2) = CN(C)CCCC[C@H](N)C(=O)O; 4Pal = N[C@@H](Cc1ccncc1)C(=O)O; Cha = N[C@@H](CC1CCCCC1)C(=O)O; Ile(3ξ) = CCC(C)[C@H](N)C(=O)O; Thr(3ξ) = CC(O)[C@H](N)C(=O)O; Carboxymethyl = O=C(O)C*; NMeA = CN[C@@H](C)C(=O)O; Dab = NCC[C@H](N)C(=O)O; Dap = NC[C@H](N)C(=O)O; ξC = NC(CS)C(=O)O
Target: T1, PE-labeled human PD-L1-Ig binding to Jurkat cell line over-expressing human PD-1 (Jurkat-PD-1) (Homo sapiens, UniProt Q15116)
T1 construct: expressed in transfected cells; host or cells: Jurkat
T1 sequence (Q15116 25-288): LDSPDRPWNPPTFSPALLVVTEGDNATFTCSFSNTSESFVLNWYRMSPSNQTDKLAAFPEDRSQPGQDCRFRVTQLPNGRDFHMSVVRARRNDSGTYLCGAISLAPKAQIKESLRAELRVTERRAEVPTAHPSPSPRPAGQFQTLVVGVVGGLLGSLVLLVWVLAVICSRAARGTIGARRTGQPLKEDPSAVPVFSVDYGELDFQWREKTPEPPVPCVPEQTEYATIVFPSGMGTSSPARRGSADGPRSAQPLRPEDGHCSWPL
Assay: Jurkat-PD-1 Cell Binding High-Content Screening Assay (CBA): Method 1
Conditions: Jurkat-hPD-1 cells, PE-labeled PD-L1-Ig 20 nM final

[1] = read-out: Jurkat HPDL1 PD1 IC50 (uM) (Method 1)

Row | SMILES | IC50 [1] | IC50 (Jurkat HPDL1 PD1 IC50 (uM) (Method 1))
1 | Cc1ccccc1C[C@@H]1NC(=O)[C@H](CC(=O)O)NC(=O)[C@H](Cc2ccc(O)cc2)NC(=O)[C@H](CC(N)=O)NC(=O)CSC[C@@H](C(=O)N[C@@H](C)C(N)=O)NC(=O)[C@H]([C@@H](C)O)NC(=O)[C@H](C(C)C)NC(=O)[C@H](CC(C)C)NC(=O)[C@H](CCCNC(=N)N)NC(=O)[C@@H](CC(C)C)NC(=O)[C@H](C)N(C)C(=O)[C@H](CCCNC(=N)N)NC(=O)[C@H](Cc2ccc(-c3ccccc3)cc2)NC(=O)[C@H](C(C)C)NC1=O [Compound 1197] ({CH2CO}-NYD[Phe(2-Me)]V[Bip]R[NMeA][dL]RLVTCA-NH2; thioether N-14) | 0.36 µM | 
2 | Cc1cccc(C[C@@H]2NC(=O)[C@H](CC(=O)O)NC(=O)[C@H](Cc3ccc(OCC(=O)O)cc3)NC(=O)[C@H](Cc3ccncc3)NC(=O)CSC[C@@H](C(=O)N[C@@H](C)C(N)=O)NC(=O)[C@H]([C@@H](C)O)NC(=O)[C@H](C(C)C)NC(=O)[C@H](CC(C)C)NC(=O)[C@H](CCN)NC(=O)[C@@H](CC(C)C)NC(=O)[C@H](C)N(C)C(=O)[C@H](C(C)C)NC(=O)[C@H](Cc3ccc(-c4ccccc4)cc3)NC(=O)[C@H](C(C)C)NC2=O)c1 [Compound 1419] ({CH2CO}-[4Pal]Y(Carboxymethyl)D[Phe(3-Me)]V[Bip]V[NMeA][dL][Dab]LVTCA-NH2; thioether N-14) | 0.01 µM | 
3 | CC(C)C[C@@H]1NC(=O)[C@H](CCCNC(=N)N)NC(=O)[C@@H](CC(C)C)NC(=O)[C@H](C)N(C)C(=O)[C@H](CCCNC(=N)N)NC(=O)[C@H](Cc2ccc(-c3ccccc3)cc2)NC(=O)[C@H](C(C)C)NC(=O)[C@H](Cc2ccc(F)c(F)c2)NC(=O)[C@H](CC(=O)O)NC(=O)[C@H](Cc2ccc(O)cc2)NC(=O)[C@H](CC(N)=O)NC(=O)CSC[C@@H](C(=O)N[C@@H](C)C(N)=O)NC(=O)[C@H]([C@@H](C)O)NC(=O)[C@H](C(C)C)NC1=O [Compound 1194] ({CH2CO}-NYD[Phe(3,4-F2)]V[Bip]R[NMeA][dL]RLVTCA-NH2; thioether N-14) | 0.69 µM | 
4 | CC(C)C[C@@H]1NC(=O)[C@H](Cc2c[nH]c3ccccc23)NC(=O)[C@H](CC(=O)O)NC(=O)[C@H](Cc2ccc(C(=O)O)cc2)NC(=O)[C@H](Cc2ccc(OCC(=O)O)cc2)NC(=O)CSC[C@@H](C(N)=O)NC(=O)[C@H](CCCCN)NC(=O)[C@H](C(C)C)NC(=O)[C@H](CC(C)C)NC(=O)[C@H](CC(N)=O)NC(=O)[C@@H](CC(C)C)NC(=O)[C@H](C)N(C)C(=O)[C@H](C(C)C)NC(=O)[C@H](Cc2ccc(-c3ccccc3)cc2)NC1=O [Compound 2258] ({CH2CO}-Y(Carboxymethyl)[Phe(4-COOH)]DWL[Bip]V[NMeA][dL]NLVKC-NH2; thioether N-14) | 0.16 µM | 
5 | CCC(C)[C@@H]1NC(=O)[C@H](Cc2ccc(-c3ccccc3)cc2)NC(=O)[C@H](C(C)C)NC(=O)[C@H](Cc2cccc(C)c2)NC(=O)[C@H](CC(=O)O)NC(=O)[C@H](Cc2ccc(OCC(=O)O)cc2)NC(=O)[C@H](CCCCN(C)C)NC(=O)CSCC(C(=O)NCC(N)=O)NC(=O)[C@H](CO)NC(=O)[C@H](C(C)C)NC(=O)[C@H](CC(C)C)NC(=O)[C@H](CC(N)=O)NC(=O)[C@@H](CC(C)C)NC(=O)[C@H](C)N(C)C1=O (stereo partly drawn) [Compound 2063] ({CH2CO}-[Lys(Me2)]Y(Carboxymethyl)D[Phe(3-Me)]V[Bip][Ile(3ξ)][NMeA][dL]NLVS[ξC]G-NH2; thioether N-14) | 0.05 µM | 
6 | Cc1cccc(C[C@@H]2NC(=O)[C@H](CC(=O)O)NC(=O)[C@H](Cc3ccc(C(=O)O)cc3)NC(=O)[C@H](Cc3ccc(OCC(=O)O)cc3)NC(=O)CSC[C@@H](C(N)=O)NC(=O)[C@H](CO)NC(=O)[C@H](C(C)C)NC(=O)[C@H](CC3CCCCC3)NC(=O)[C@H](CC(N)=O)NC(=O)[C@@H](CC(C)C)NC(=O)[C@H](C)N(C)C(=O)[C@H](C(C)C)NC(=O)[C@H](Cc3ccc(-c4ccccc4)cc3)NC(=O)[C@H](CC(C)C)NC2=O)c1 [Compound 1681] ({CH2CO}-Y(Carboxymethyl)[Phe(4-COOH)]D[Phe(3-Me)]L[Bip]V[NMeA][dL]N[Cha]VSC-NH2; thioether N-14) | 0.03 µM | 
7 | CC(C)C[C@@H]1NC(=O)[C@H](Cc2c[nH]c3ccccc23)NC(=O)[C@H](CC(=O)O)NC(=O)[C@H](Cc2ccc(O)cc2)NC(=O)[C@H](Cc2ccccc2)NC(=O)CSC[C@@H](C(=O)NCC(N)=O)NC(=O)[C@H](CO)NC(=O)[C@H](C(C)C)NC(=O)[C@H](CC(C)C)NC(=O)[C@H](CC(N)=O)NC(=O)[C@H](CCN)NC(=O)[C@H](C)N(C)C(=O)[C@H](C(C)C)NC(=O)[C@H](Cc2ccc(-c3ccccc3)cc2)NC1=O [Compound 1795] ({CH2CO}-FYDWL[Bip]V[NMeA][Dab]NLVSCG-NH2; thioether N-14) | 0.16 µM | 
8 | CC[C@H](C)[C@@H]1NC(=O)[C@H](Cc2ccc(-c3ccccc3)cc2)NC(=O)[C@H](C(C)C)NC(=O)[C@H](Cc2c[nH]c3ccccc23)NC(=O)[C@H](CC(=O)O)NC(=O)[C@H](Cc2ccc(O)cc2)NC(=O)[C@H](CN)NC(=O)CSC[C@@H](C(=O)N[C@@H](C)C(N)=O)NC(=O)[C@H]([C@@H](C)O)NC(=O)[C@H](C(C)C)NC(=O)[C@H](CC2CCCCC2)NC(=O)[C@H](CCCNC(=N)N)NC(=O)[C@@H](CC(C)C)NC(=O)[C@H](C)N(C)C1=O [Compound 1492] ({CH2CO}-[Dap]YDWV[Bip]I[NMeA][dL]R[Cha]VTCA-NH2; thioether N-14) | 0.04 µM | 
9 | CC(C)C[C@@H]1NC(=O)[C@H](CCN)NC(=O)[C@@H](CC(C)C)NC(=O)[C@H](C)N(C)C(=O)[C@H]([C@@H](C)O)NC(=O)[C@H](Cc2ccc(-c3ccccc3)cc2)NC(=O)[C@H](C(C)C)NC(=O)[C@H](Cc2c[nH]c3ccccc23)NC(=O)[C@H](CC(=O)O)NC(=O)[C@H](Cc2ccc(O)cc2)NC(=O)[C@H](CC(N)=O)NC(=O)CSC[C@@H](C(=O)N[C@@H](C)C(N)=O)NC(=O)[C@H]([C@@H](C)O)NC(=O)[C@H](C(C)C)NC1=O [Compound 1300] ({CH2CO}-NYDWV[Bip]T[NMeA][dL][Dab]LVTCA-NH2; thioether N-14) | 0.02 µM | 
10 | Cc1cccc(C[C@@H]2NC(=O)[C@H](CC(=O)O)NC(=O)[C@H](Cc3ccccc3)NC(=O)[C@H](CN)NC(=O)CSC[C@@H](C(=O)N[C@@H](C)C(N)=O)NC(=O)[C@H](CO)NC(=O)[C@H](Cc3ccccc3)NC(=O)[C@H](CC(C)C)NC(=O)[C@H](CC(N)=O)NC(=O)[C@@H](CC(C)C)NC(=O)[C@H](C)N(C)C(=O)[C@H](Cc3ccccc3)NC(=O)[C@H](Cc3ccc(-c4ccccc4)cc3)NC(=O)[C@H](CC(C)C)NC2=O)c1 [Compound 1594] ({CH2CO}-[Dap]FD[Phe(3-Me)]L[Bip]F[NMeA][dL]NLFSCA-NH2; thioether N-14) |  | 0.01 µM
11 | CC(=O)NCCCC[C@@H]1NC(=O)[C@H](Cc2ccc(-c3ccccc3)cc2)NC(=O)[C@H](Cc2ccc(O)cc2)NC(=O)[C@H](Cc2cccc(C)c2)NC(=O)[C@H](CC(=O)O)NC(=O)[C@H](Cc2ccc(OCC(=O)O)cc2)NC(=O)[C@H](C(C)O)NC(=O)CSC[C@@H](C(=O)N[C@H](CC(N)=O)C(N)=O)NC(=O)[C@H](C(C)O)NC(=O)[C@H](C(C)C)NC(=O)[C@H](CC2CCCCC2)NC(=O)[C@H](CCN)NC(=O)[C@@H](CC(C)C)NC(=O)[C@H](C)N(C)C1=O (stereo partly drawn) [Compound 2118] ({CH2CO}-[Thr(3ξ)]Y(Carboxymethyl)D[Phe(3-Me)]Y[Bip]K(Ac)[NMeA][dL][Dab][Cha]V[Thr(3ξ)]C[dN]-NH2; thioether N-14) | 0.05 µM | 

From US20240409585A1, “MACROCYCLIC IMMUNOMODULATORS” (priority 2021, published 2024)
